Measurements: PubChem BioAssay (NCI)
Several values for one entry are separate records, joined by “and”; a condition that tells them apart may be missing. Equal values may be shown once.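 Compound exposure: 48 hours, 5 concentrations, 96-well plates. Here, GI50 denotes the concentration required for 50% inhibition of growth. TGI marks complete inhibition of growth.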

Key:
Assay in all cases: NCI-60 cell line screen, 48 h
NCI-H226 lung = test system: NCI-H226 lung
A498 renal = test system: A498 renal
HS 578T breast = test system: HS 578T breast
HCT-116 colon = test system: HCT-116 colon
OVCAR-8 ovarian = test system: OVCAR-8 ovarian
HL-60(TB) leukemia = test system: HL-60(TB) leukemia
HT29 colon = test system: HT29 colon
SR leukemia = test system: SR leukemia
NCI-H23 lung = test system: NCI-H23 lung
SN12C renal = test system: SN12C renal

Row | Compound | TGI (NCI-H226 lung) | GI50 (A498 renal) | TGI (A498 renal) | GI50 (HS 578T breast) | TGI (HS 578T breast) | GI50 (HCT-116 colon) | TGI (HCT-116 colon) | GI50 (OVCAR-8 ovarian) | TGI (OVCAR-8 ovarian) | GI50 (HL-60(TB) leukemia) | TGI (HL-60(TB) leukemia) | GI50 (HT29 colon) | TGI (HT29 colon) | GI50 (SR leukemia) | TGI (SR leukemia) | GI50 (NCI-H23 lung) | TGI (NCI-H23 lung) | GI50 (SN12C renal) | TGI (SN12C renal) | GI50 (NCI-H226 lung)
1 | CCN1C(=O)N(CC)C2C1NN=c1s/c(=C\c3ccc(Br)cc3)c(=O)n12 (configuration not stated) | > 100 µM | 0.0833 µM | > 100 µM | 0.194 µM | > 100 µM | 0.107 µM | > 100 µM | 0.416 µM | > 100 µM | 0.107 µM | 1.43 µM | 0.0757 µM | > 100 µM | 0.04 µM | > 100 µM | 0.422 µM | > 100 µM | 0.512 µM | > 100 µM | –
2 | NC(=O)C1CCCN1Cc1ccc2c(c1)OCO2 (configuration not stated) | > 100 µM | – | > 100 µM | – | > 100 µM | – | > 100 µM | – | > 100 µM | – | > 100 µM | – | > 100 µM | – | > 100 µM | – | > 100 µM | – | > 100 µM | –
3 | CC1(/C=C/c2ccc(-c3ccccc3)cc2)CCn2cnc3ncnc(c32)N1O (configuration not stated) | 20.2 µM | 0.0387 µM | 3.99 µM | 3.37 µM | 30.9 µM | 0.358 µM | 18.6 µM | 0.419 µM | > 55.1 µM | 0.318 µM | 1.81 µM | 0.526 µM | 41.7 µM | 0.31 µM | > 100 µM | 0.635 µM | 27.3 µM | 0.508 µM | 40.7 µM | 0.571 µM
4 | COc1ccc(N2CCN(c3nc(-c4ccccn4)nc4sc5c(c34)CCCCCC5)CC2)cc1 | > 100 µM | 3.3 µM | > 100 µM | 57.6 µM | > 100 µM | 3.22 µM | > 100 µM | 5.23 µM | > 100 µM | 4.05 µM | 34 µM | 5.06 µM | > 100 µM | 3.18 µM | > 100 µM | 16.9 µM | > 100 µM | 5.99 µM | > 100 µM | 6.49 µM
5 | Clc1ccc(Nc2nnc(COc3ccccc3)c3ccccc23)cc1 | 6.58 µM | 0.686 µM | 3.64 µM | 2.58 µM | 10.5 µM | 1.07 µM | 4.83 µM | 3.49 µM | 15 µM | 3.56 µM | 11.9 µM | 0.429 µM | 4.25 µM | 1.23 µM | 11.2 µM | 1.56 µM | 7.87 µM | 2.12 µM | 8.07 µM | 1.56 µM
6 | O=C(Nc1ccc([N+](=O)[O-])cc1Cl)c1cc(Cl)ccc1O | – | 0.0329 µM and 0.0832 µM | 0.171 µM and 0.353 µM | 0.133 µM and 0.207 µM | – | 0.121 µM and 0.172 µM | 0.397 µM and 0.483 µM | 0.147 µM and 0.33 µM | 0.605 µM | 0.115 µM | 0.244 µM | 1.26 µM and 2.16 µM | 3.68 µM and > 28.8 µM | 0.145 µM and 0.134 µM | 0.761 µM | 0.104 µM and 0.19 µM | 0.39 µM and 0.737 µM | 0.115 µM and 0.195 µM | – | 0.155 µM and 0.334 µM
7 | Cc1cc(C(=O)NOCCO)c(Nc2ccc(I)cc2F)n(C)c1=O | > 100 µM | 0.00323 µM and 0.0103 µM | 0.0286 µM and 0.0435 µM | > 10 µM and 37.2 µM | > 100 µM | 0.011 µM and 0.0164 µM | > 100 µM | > 36.5 µM | > 100 µM | 0.00173 µM and < 0.01 µM | > 49.6 µM | 0.00193 µM and < 0.01 µM | > 100 µM | > 10 µM and 29.5 µM | > 100 µM | 0.0237 µM and 0.0131 µM | > 100 µM | 12.3 µM | > 100 µM | > 10 µM and 5.83 µM
8 | O=C1NC(=O)/C(=C/c2ccc3nccc(-c4ccncc4)c3c2)S1 | 2.76 µM | 0.0335 µM | 0.208 µM | 0.119 µM | 0.54 µM | 0.466 µM | > 5.61 µM | 0.517 µM | > 10 µM | 0.325 µM | > 6.77 µM | 0.423 µM | 6.29 µM | 0.547 µM | 4.88 µM | 0.633 µM | > 6 µM | 0.396 µM | > 10 µM | 0.239 µM
9 | NS(=O)(=O)c1ccc(NC(=O)Nc2cccc3ccccc23)cc1 | 52.8 µM | – | 52.2 µM | – | > 100 µM | – | > 100 µM | – | 40.6 µM | – | > 100 µM | – | > 100 µM | – | > 100 µM | – | > 100 µM | – | > 100 µM | –
10 | C=C1CC2(CC(c3ccccc3C)OC(c3ccccc3C)C2)OC1=O (configuration not stated) | 18.7 µM | – | 21.6 µM | – | 5.43 µM | – | 3.21 µM | – | 4.63 µM | – | 11.6 µM | – | 3.53 µM | – | > 26.8 µM | – | 3.9 µM | – | 4.42 µM | –
11 | OC(CBr)C(O)C(O)C(O)CBr (configuration not stated) | > 100 µM | – | > 100 µM | – | > 100 µM | 37.3 µM and > 100 µM | > 100 µM | – | > 100 µM | – | > 67.5 µM | – | > 100 µM | – | > 100 µM | 12 µM and > 61.1 µM | > 100 µM | 15.3 µM and 57.5 µM | > 100 µM | –
12 | C[C@H]1O[C@@H](O[C@H]2[C@@H](O)C[C@H](O[C@H]3[C@@H](O)C[C@H](O[C@H]4CC[C@]5(C)C6CC[C@]7(C)[C@@H](C8=CC(=O)OC8)CC[C@]7(O)C6CC[C@@H]5C4)O[C@@H]3C)O[C@@H]2C)C[C@H](O)[C@@H]1O (some centres not stated) | 0.115 µM | 0.0351 µM | 0.262 µM | 0.013 µM | 1.57 µM | – | 0.0494 µM | 0.0178 µM | 0.0648 µM | 0.0114 µM | 0.0261 µM | 0.0193 µM | 0.0653 µM | – | 0.0512 µM | 0.0117 µM | 0.0355 µM | 0.0167 µM | 0.112 µM | 0.0476 µM
13 | COc1cccc(/C=C/C(=O)c2cc3c(N)c(C(=O)Nc4ccccc4)sc3nc2C)c1 | 2.75 µM | 1.18 µM | 4.41 µM | 1.92 µM | > 50 µM | 0.838 µM | 1.58 µM | 1.63 µM | > 50 µM | 1.02 µM | 2.72 µM | 1.21 µM | 3.42 µM | 1.28 µM | 6.46 µM | 1.2 µM | 3.05 µM | 1.12 µM | 2.78 µM | 1.15 µM
14 | N/C(=N/O)NOCCC(N)C(=O)O (configuration not stated) | > 100 µM | > 100 µM | > 100 µM | > 100 µM | > 100 µM | > 100 µM | > 100 µM | > 100 µM | > 100 µM | > 100 µM | > 100 µM | > 100 µM | > 100 µM | > 100 µM | > 100 µM | > 100 µM | > 100 µM | > 100 µM | > 100 µM | > 100 µM
15 | COc1cc(N2CCN(C(C)C)CC2)ccc1Nc1nc(Nc2ccc(F)cc2C(N)=O)c2cc[nH]c2n1 | 6.65 µM | 0.165 µM | 3.65 µM | 2.67 µM | 9.8 µM | 0.119 µM | 3.6 µM | 0.363 µM | 5.43 µM | 0.0594 µM | 4.7 µM | 0.0208 µM | 2.88 µM | 0.0145 µM | 10.1 µM | 0.304 µM | 6.65 µM | 2.54 µM | 5.9 µM | 1.11 µM
16 | O=C(C#Cc1ccccc1)N1CCCCC1 | > 100 µM | – | > 100 µM | – | > 100 µM | – | 67.5 µM | – | > 100 µM | – | > 100 µM | – | > 100 µM | – | > 100 µM | – | > 100 µM | – | > 100 µM | –
17 | O=C(COc1ccc(Cl)cc1Cl)NNc1ccc([N+](=O)[O-])cc1 | > 100 µM | 21.6 µM | 53.8 µM | 25.6 µM | 95.4 µM | 65.3 µM | > 100 µM | 98.9 µM | > 100 µM | > 100 µM | > 100 µM | > 100 µM | > 100 µM | 49.9 µM | > 100 µM | 41.5 µM | > 100 µM | 80 µM | > 100 µM | 28.9 µM
18 | Cn1cc(-c2[nH]c3cc(NC(=O)[C@H](N)C4CCCCC4)cc4c3c2C=NNC4=O)cn1 | 17.8 µM and > 10 µM | 0.0542 µM and 0.0975 µM | 0.352 µM and 0.579 µM | 0.185 µM and 0.247 µM | 2.59 µM and 1.81 µM | 0.399 µM and 0.561 µM | 10.9 µM and > 10 µM | 0.264 µM and 0.351 µM | 4.08 µM and > 10 µM | 0.292 µM and 0.296 µM | 0.775 µM and > 4.21 µM | 1.44 µM and 0.994 µM | 8.24 µM and > 10 µM | 0.0566 µM and 0.12 µM | 0.622 µM and 1.1 µM | 0.267 µM and 0.197 µM | 9.52 µM and > 10 µM | 0.56 µM and 0.55 µM | 13.4 µM and > 10 µM | 0.963 µM and 0.398 µM
19 | c1ccc2c(c1)CCCc1nnc3nc4ccccc4n3c1-2 | > 100 µM | 16.6 µM | > 100 µM | 20.5 µM | > 100 µM | 3.35 µM | 13.8 µM | 5.02 µM | 74.1 µM | 2.49 µM | 78.2 µM | 10.1 µM | 82.5 µM | 3.16 µM | 25.7 µM | 7.31 µM | > 100 µM | 8.15 µM | > 100 µM | 6.39 µM
20 | COc1ccc(/C=C2\CCC(C)(CN(C)C)C2=O)cc1Br (configuration not stated) | 56.1 µM | – | 50 µM | – | 85.4 µM | – | 32.1 µM | – | 32.9 µM | – | 85.2 µM | – | 49.6 µM | – | 45.7 µM | – | > 95.1 µM | – | 31.8 µM | –
